Residues, ends and D or L forms follow the SMILES beside them.
Key:
[1] = in vitro; type: cell-based; conditions: human, MRC-5 cells
[2] = tested on: Pseudomonas aeruginosa; type: cell-based; conditions: 5 micrograms per ml
[3] = tested on: Streptococcus pneumoniae; type: cell-based; conditions: 5 micrograms per ml
[4] = tested on: MRSA; conditions: 5 micrograms per ml
[5] = in vitro; conditions: human, CEM-SS cells
[6] = in vitro; conditions: human
Method: HepG2-2.2.15 is a stable cell line containing the hepatitis B virus (HBV) ayw strain genome (ATCC Cat. No. CRL-11997). […] After 16-24 hours the confluent monolayer of HepG2-2.2.15 cells was washed and the medium was replaced with complete medium containing test peptide—10 micrograms per ml—in duplicate. […] Three days later the culture medium was replaced with fresh medium containing the peptide. Six days following the initial administration of the peptide, the cell culture supernatants was collected, treated with pronase and DNAse and then used in a real-time quantitative TaqMan PCR assay. The PCR-amplified HBV DNA was detected in real-time by monitoring increases in fluorescence signals that result from the exonucleolytic degradation of a quenched fluorescence probe molecule that hybridizes to the amplified HBV DNA. For each PCR amplification, a standard curve was simultaneously generated using dilutions of purified HBV DNA. Antiviral activity was calculated from the reduction in HBV DNA levels (% virus control). A novel dye uptake assay was then employed to measure cell viability, which is used to calculate toxicity (% cell control).

SMILES: C[C@@H](O)[C@H](N)C(=O)N[C@@H](CCCCN)C(=O)N1CCC[C@H]1C(=O)N[C@@H](CCCNC(=N)N)C(=O)O [Tuftsin, Thr-Lys-Pro-Arg-OH] (H-TKPR-OH)
- viability at 144 h [1]: 100%
- % inhibition [2]: 0.0%
- % inhibition [3]: 0.0%
- % inhibition [4]: 0.0%
- viability at 10 micrograms per ml [5]: 100%
- viability at 144 h, 10 micrograms per ml [6]: 100%
